In PubChem BioAssay (NCI) one finds GI50 and TGI data, which are given here for ten molecules.

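How tested: cells in 96-well plates exposed to compound for 48 hours at five concentrations. GI50 = concentration required for 50% inhibition of growth. TGI is the concentration that stops growth completely.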

Among the test systems are SK-MEL-5 melanoma; M14 melanoma; SK-MEL-2 melanoma; CAKI-1 renal; K-562 leukemia; CCRF-CEM leukemia; HS 578T breast; MCF7 breast.
Experiment in all cases: NCI-60 cell line screen, 48 h

As to `COc1ccc(CCNc2nc3ccccc3c3[nH]c4ccccc4c23)cc1OC`, the GI50 was 1.8 µM in the experiment with SK-MEL-5 melanoma; 1.87 µM with M14 melanoma; 1.98 µM in the experiment with SK-MEL-2 melanoma; 11.4 µM with CAKI-1 renal; 2.45 µM with K-562 leukemia; 1.87 µM in the experiment with CCRF-CEM leukemia. The GI50 is 2.54 µM in the experiment on HS 578T breast and 2.2 µM with MCF7 breast. For the same molecule, the TGI with SK-MEL-5 melanoma came to 3.21 µM; with M14 melanoma, 3.5 µM; in the experiment with SK-MEL-2 melanoma, 3.77 µM; in the experiment on CAKI-1 renal it was 24.8 µM; in the experiment with K-562 leukemia, 10.2 µM; in the experiment with CCRF-CEM leukemia, 13.8 µM. Also, the TGI in the experiment on HS 578T breast amounted to 6.17 µM; in the experiment with MCF7 breast, 5.32 µM.

With `CN(NC(=O)/C(=C/c1ccc(O)cc1)NC(=O)c1ccccc1)c1ccnc2cc(Cl)ccc12`, the TGI with SK-MEL-5 melanoma was 37.5 µM; in the experiment on M14 melanoma, 36.6 µM; in the experiment with SK-MEL-2 melanoma, 44.4 µM; in the experiment on CAKI-1 renal, 33.8 µM; in the experiment on K-562 leukemia, 30.5 µM; in the experiment with CCRF-CEM leukemia, 61.5 µM. The TGI with HS 578T breast is 48.2 µM; in the experiment on MCF7 breast, 30.4 µM.

Turning to `Cn1cc(-c2ccc3cc(-c4ccc(CC(=O)Nc5cc(C(C)(C)C)nn5C)cc4)cnc3c2)cn1`, the GI50 in the experiment on SK-MEL-5 melanoma is 0.227 µM; in the experiment on M14 melanoma, 0.144 µM; with SK-MEL-2 melanoma it was 0.138 µM; in the experiment on CAKI-1 renal, 0.0519 µM; in the experiment with K-562 leukemia it was 0.347 µM; in the experiment with CCRF-CEM leukemia, 0.375 µM. In addition, the values for the GI50 in the experiment with HS 578T breast and with MCF7 breast were 0.187 µM and 0.496 µM, respectively. In addition, the TGI in the experiment on SK-MEL-5 melanoma is 0.585 µM; with M14 melanoma, greater than 100 µM; in the experiment with CAKI-1 renal it was greater than 100 µM; in the experiment on K-562 leukemia it was greater than 100 µM; in the experiment on CCRF-CEM leukemia, greater than 100 µM; in the experiment on HS 578T breast, greater than 100 µM. The TGI with MCF7 breast was greater than 100 µM.

Consider `COc1ccc(C(=O)CC2(O)C(=O)Nc3c(Cl)ccc(Cl)c32)cc1` (configuration not stated), for which the GI50 was 1.01 µM in the experiment with SK-MEL-5 melanoma; 0.56 µM in the experiment with M14 melanoma; 2.21 µM in the experiment with SK-MEL-2 melanoma; 1.75 µM with CAKI-1 renal; 0.403 µM with K-562 leukemia; 2.03 µM with CCRF-CEM leukemia. Besides, the GI50 in the experiment on HS 578T breast is 1.66 µM; in the experiment with MCF7 breast, 0.64 µM. Besides, the TGI in the experiment with SK-MEL-5 melanoma was 18.8 µM; in the experiment with M14 melanoma, greater than 22.2 µM; in the experiment with SK-MEL-2 melanoma, greater than 44.1 µM; in the experiment with CAKI-1 renal, greater than 100 µM; in the experiment on K-562 leukemia, greater than 100 µM; in the experiment with CCRF-CEM leukemia, greater than 26.3 µM. For the same molecule, the results for the TGI in the experiment with HS 578T breast and in the experiment on MCF7 breast were greater than 24.6 µM and greater than 100 µM, respectively.

On to `COc1cc([C@@H]2c3cc4c(cc3[C@H](OC3OC5COC(c6ccccc6)OC5C(O)C3O)[C@H]3COC(=O)[C@H]23)OCO4)cc(OC)c1OC` (some centres not stated), for which the GI50 in the experiment on SK-MEL-5 melanoma is 0.242 µM; in the experiment with M14 melanoma, 0.351 µM; in the experiment with SK-MEL-2 melanoma it was 0.978 µM; in the experiment on CAKI-1 renal, 0.378 µM; with K-562 leukemia it was 0.359 µM; in the experiment with CCRF-CEM leukemia, 0.57 µM. In addition, the GI50 in the experiment on HS 578T breast was 0.303 µM; with MCF7 breast, 0.279 µM. In addition, the TGI was 0.715 µM with SK-MEL-5 melanoma; 17.9 µM with M14 melanoma; 5.64 µM in the experiment with SK-MEL-2 melanoma; 22.2 µM with CAKI-1 renal; greater than 100 µM with K-562 leukemia; 1.67 µM in the experiment with HS 578T breast. The TGI with MCF7 breast was 4.2 µM.

For the molecule `CC(C)(O)Cn1c(=O)c(Oc2ccc(F)cc2F)cc2cnc(NC3CCOCC3)nc21`, the GI50 in the experiment on SK-MEL-5 melanoma, in the experiment on M14 melanoma, in the experiment with SK-MEL-2 melanoma, with CAKI-1 renal, in the experiment on K-562 leukemia and in the experiment with CCRF-CEM leukemia was greater than 25 µM each time. For the same molecule, the GI50 with HS 578T breast and in the experiment with MCF7 breast was greater than 25 µM each time. Besides, the TGI in the experiment with SK-MEL-5 melanoma, in the experiment on M14 melanoma, in the experiment on SK-MEL-2 melanoma, with CAKI-1 renal, in the experiment with K-562 leukemia and in the experiment with CCRF-CEM leukemia was greater than 25 µM each time. Besides, the TGI in the experiment on HS 578T breast and in the experiment with MCF7 breast was greater than 25 µM each time.

Consider `COc1ccc(C(=O)c2cc3c(N)c(C(=O)Nc4cccc(Cl)c4)sc3nc2C)cc1`, for which the GI50 in the experiment with SK-MEL-5 melanoma was 0.92 µM; in the experiment with M14 melanoma, 1.08 µM; in the experiment with SK-MEL-2 melanoma, 11.2 µM; in the experiment on CAKI-1 renal, 1.28 µM; in the experiment with K-562 leukemia, 1.36 µM; with CCRF-CEM leukemia it was 1.2 µM. Besides, the GI50 in the experiment on HS 578T breast was 0.957 µM; in the experiment with MCF7 breast, 1.25 µM. In addition, the TGI is 2.6 µM with SK-MEL-5 melanoma; greater than 33.3 µM in the experiment with M14 melanoma; greater than 33.3 µM in the experiment on SK-MEL-2 melanoma; greater than 33.3 µM in the experiment with CAKI-1 renal; greater than 33.3 µM in the experiment with K-562 leukemia; greater than 33.3 µM with CCRF-CEM leukemia. In addition, the TGI in the experiment with HS 578T breast was 6.62 µM; in the experiment with MCF7 breast it was greater than 33.3 µM.

Turning to `Cc1ccc(CCC(=O)Nc2ncc(Cc3cc(Cl)ccc3Cl)s2)o1`, the GI50 in the experiment on SK-MEL-5 melanoma was 0.0804 µM; with M14 melanoma, 0.091 µM; with SK-MEL-2 melanoma, 0.683 µM; in the experiment with CAKI-1 renal, 0.114 µM; in the experiment with K-562 leukemia it was 0.0401 µM; in the experiment with CCRF-CEM leukemia, 0.197 µM. Further, the GI50 in the experiment on HS 578T breast is 0.289 µM; in the experiment with MCF7 breast, 0.0439 µM. In addition, the TGI with SK-MEL-5 melanoma was 5.96 µM; with M14 melanoma, 3.97 µM; with SK-MEL-2 melanoma, greater than 58.5 µM; in the experiment on CAKI-1 renal, 7.36 µM; with K-562 leukemia it was greater than 100 µM; with CCRF-CEM leukemia, greater than 100 µM. Moreover, the figures for the TGI with HS 578T breast and with MCF7 breast were 7.2 µM and greater than 100 µM, respectively.

In the case of `C=C1C(=O)OC(CCCCCCCC)C1C(=O)O` (configuration not stated), the GI50 with SK-MEL-5 melanoma is 16.1 µM; with M14 melanoma, 14.6 µM; in the experiment on SK-MEL-2 melanoma, 16.1 µM; in the experiment with CAKI-1 renal, 16 µM; in the experiment on K-562 leukemia it was 27.9 µM; with CCRF-CEM leukemia, 5.49 µM. Besides, the values for the GI50 in the experiment with HS 578T breast and in the experiment with MCF7 breast were 17.3 µM and 12.6 µM, respectively. Also, the TGI with SK-MEL-5 melanoma is 29.9 µM; in the experiment on M14 melanoma, 29.7 µM; with SK-MEL-2 melanoma it was 31.7 µM; in the experiment with CAKI-1 renal it was 34.9 µM; in the experiment on K-562 leukemia it was greater than 75.8 µM; in the experiment with CCRF-CEM leukemia, 38.7 µM. Further, the TGI in the experiment on HS 578T breast is greater than 86.6 µM; in the experiment on MCF7 breast, 26.5 µM.

Turning to `CC1(CCCC2(C)CCNC2=O)OCCO1` (configuration not stated), the TGI with SK-MEL-5 melanoma, in the experiment on M14 melanoma, in the experiment with SK-MEL-2 melanoma, in the experiment with CAKI-1 renal, in the experiment with K-562 leukemia and with CCRF-CEM leukemia was greater than 10 µM in each case. Also, the TGI with HS 578T breast and in the experiment on MCF7 breast was greater than 10 µM in each case.
